Values quoted from earlier work as cited in patent US20080274188A1, “Oral Vehicle For Systemic Pharmaceuticals” (priority 2005, published 2008).
Like-named read-outs stand apart in the source and are kept apart here.

Conditions: for Solubility water: words

In the case of CC(=O)Nc1ccc(O)cc1 [Acetaminophen], the Solubility water (cold water) is listed as “Cold-v slight” and the Solubility water (hot water) is listed as “Hot-considerably more”.
In the case of Cc1onc(-c2ccccc2Cl)c1C(=O)N[C@@H]1C(=O)N2[C@@H]1SC(C)(C)[C@@H]2C(=O)O [Cloxacillin, Cloxacillin (Na monohydrate)], the Solubility water (temperature not stated) is listed as “soluble”.
For COc1ccc2c3c1O[C@H]1[C@@H](O)C=C[C@H]4[C@@H](C2)N(C)CC[C@@]341 [Codeine phosphate], the “Solubility water (ml of water for 1 g)” value (temperature not stated, 1 g in the stated ml) is listed as 1 g in 2.5 ml water.
In the case of C1CNCCN1 [Piperazine], the Solubility water (temperature not stated) is given as “Freely soluble”.
